# Source: ChEMBL document CHEMBL1921708, “Klymollins A-H, bioactive eunicellin-based diterpenoids from the formosan soft coral Klyxum molle” (J Nat Prod, 2011)
# Columns and labels:
# HeLa = assay: Cytotoxicity against human HeLa cells; type: cell-based
# MCF7 = assay: Cytotoxicity against human MCF7 cells; type: cell-based
# RAW264.7 [1] = assay: Antiinflammatory activity in LPS-stimulated mouse RAW264.7 cells assessed as reduction in iNOS protein expression at 10 uM by immunoblot analysis; type: functional; design: scale not given: the % may be the effect or the level left
# HEp-2 = assay: Cytotoxicity against human Hep2 cells; type: cell-based
# Daoy = assay: Cytotoxicity against human DaOY cells; type: cell-based
# RAW264.7 [2] = assay: Antiinflammatory activity in LPS-stimulated mouse RAW264.7 cells assessed as reduction in COX2 protein expression at 10 uM by immunoblot analysis; type: functional; design: scale not given: the % may be the effect or the level left
smiles,measurement,setting,value
C=C1C[C@H]2O[C@H]([C@@H]3[C@@H](C(C)C)[C@H](OC(C)=O)[C@H](OC(C)=O)[C@@]4(CO4)[C@@H]32)[C@](C)(OC(C)=O)CC[C@@H]1O (relative stereo),Activity,HeLa,Non-toxic
same,Activity,MCF7,Non-toxic
same,Activity,RAW264.7 [1],42.1%
same,Activity,HEp-2,Non-toxic
same,Activity,Daoy,Non-toxic
C=C1C[C@H]2O[C@H]([C@H]3[C@@H]2[C@]2(CO2)[C@@H](OC(C)=O)C[C@@H]3C(C)C)[C@](C)(OC(C)=O)CC[C@@H]1O (relative stereo),Activity,HeLa,Non-toxic
same,Activity,MCF7,Non-toxic
same,Activity,RAW264.7 [1],25.1%
same,Activity,HEp-2,Non-toxic
same,Activity,Daoy,Non-toxic
CC(=O)O[C@H]1[C@H](C(C)C)[C@@H]2[C@@H]([C@H]3C[C@](C)(O)[C@@H](OC(C)=O)CC[C@@](C)(OC(C)=O)[C@@H]2O3)[C@]2(CO2)[C@H]1OC(C)=O (relative stereo),Activity,HeLa,Non-toxic
same,Activity,MCF7,Non-toxic
same,Activity,RAW264.7 [1],25.7%
same,Activity,HEp-2,Non-toxic
same,Activity,Daoy,Non-toxic
CCCCCCCCCCCCCC(=O)O[C@H]1CC[C@@](C)(OC(C)=O)[C@@H]2O[C@H](C[C@]1(C)O)[C@@H]1[C@H]2[C@@H](C(C)C)[C@H](OC(C)=O)[C@H](OC(C)=O)[C@@]12CO2 (relative stereo),Activity,HeLa,Non-toxic
same,Activity,MCF7,Non-toxic
same,Activity,RAW264.7 [1],6%
same,Activity,RAW264.7 [2],8.5%
same,Activity,HEp-2,Non-toxic
same,Activity,Daoy,Non-toxic
CCCCCCCCCCCCCCCC(=O)O[C@H]1CC[C@@](C)(OC(C)=O)[C@@H]2O[C@H](C[C@]1(C)O)[C@@H]1[C@H]2[C@@H](C(C)C)[C@H](OC(C)=O)[C@H](OC(C)=O)[C@@]12CO2 (relative stereo),Activity,HeLa,Non-toxic
same,Activity,MCF7,Non-toxic
same,Activity,RAW264.7 [1],5.2%
same,Activity,RAW264.7 [2],4.4%
same,Activity,HEp-2,Non-toxic
same,Activity,Daoy,Non-toxic
CC(=O)O[C@H]1[C@H](C(C)C)[C@@H]2[C@@H]([C@H]3C[C@@H](C)C(=O)CC[C@@](C)(OC(C)=O)[C@@H]2O3)[C@](O)(CCl)[C@H]1OC(C)=O [KLYMOLLIN A],Activity,HeLa,Non-toxic
same,Activity,MCF7,Non-toxic
same,Activity,HEp-2,Non-toxic
same,Activity,Daoy,Non-toxic
CC(=O)O[C@H]1[C@H](C(C)C)[C@@H]2[C@@H]([C@H]3C[C@H](C)C(=O)CC[C@@](C)(OC(C)=O)[C@@H]2O3)[C@](O)(CCl)[C@H]1OC(C)=O [KLYMOLLIN B],Activity,HeLa,Non-toxic
same,Activity,MCF7,Non-toxic
same,Activity,HEp-2,Non-toxic
same,Activity,Daoy,Non-toxic
CC(=O)O[C@H]1[C@H](C(C)C)[C@@H]2[C@@H]([C@H]3C[C@](C)(O)[C@@H](OC=O)CC[C@@](C)(OC(C)=O)[C@@H]2O3)[C@]2(CO2)[C@H]1OC(C)=O [KLYMOLLIN H],Activity,HeLa,Non-toxic
same,Activity,MCF7,Non-toxic
same,Activity,RAW264.7 [1],32.6%
same,Activity,HEp-2,Non-toxic
same,Activity,Daoy,Non-toxic
